Literature values in PMC5516987, “Safety and pharmacodynamics of dalazatide, a Kv1.3 channel inhibitor, in the treatment of plaque psoriasis: A randomized phase 1b trial” (PLoS ONE, 2017).

How the values were obtained:
[1] = 4-AP and related compounds
Excerpt: One potassium channel blocking drug that has been tested in humans is the nonselective potassium channel inhibitor, 4-aminopyridine (4-AP, fampridine, dalfampridine). Various formulations of 4-AP have been evaluated for their potential to increase nerve conduction and improve function in spinal cord injury, autoimmune diseases involving the nervous system, and diseases of nerve conduction. The most commonly reported adverse events are paresthesia (perioral and digital), nausea, dizziness, headache, and insomnia. Although infrequent, the most serious toxicity reported in patients treated ...

[2] = tested on: viral and bacterial infections; settings: chronically treated animals, versus vehicle
Excerpt: Dalazatide (previously referred to as ShK-186 and SL5) is a 37-amino acid synthetic peptide that is a specific inhibitor of the voltage-gated Kv1.3 potassium channel. It is a derivative of ShK, which was originally isolated from the venom of the sea anemone Stichodactyla helianthus. Human T cells rely on two potassium channels, Kv1.3 and KCa3.1 to maintain the calcium signaling required for their activation and differentiation, by maintaining a balance between calcium influx and potassium efflux. Chronically activated memory T cells that rely on upregulation of Kv1.3 expression for ...

Row | SMILES | Crossing of the blood-brain barrier [1] | Clearance of viral and bacterial infections [2]
1 | Nc1ccncc1 [4-AP, 4-aminopyridine] | readily cross the blood-brain barrier | –
2 | C[C@@H]1C[C@H]2[C@@H]3CCC4=CC(=O)C=C[C@]4(C)[C@@]3(F)[C@@H](O)C[C@]2(C)[C@@]1(O)C(=O)CO [dexamethasone] | – | significantly delayed clearance rate
